According to patent US4279915A, “Method of treatment using new leurosine derivatives” (priority 1973, dated 1981):

Assays:
[1] = test system: haemoblastoses and leukemia; experiment: clinical treatment of patients with haemoblastoses and leukemia (Example A); assay type: in vivo, human
Method: Based on the experiences obtained on 17 patients during the first half-year, further 8 patients with haemoblastoses and leukemia were given treatment. The patients were given daily 0.05 mg/kg single doses. The clinical examinations during the second half-year were performed with the same daily dose, but with different total doses. The smallest total amount meant 3, the highest 12 subsequent doses. The dosage was tested both in forms of sequential and intermittent treatment.
3 patients out of 8 received the drug sequentially, which meant single doses on subsequent days, the remaining 5 patients were given intermittent treatment.
The intermittent treatment was made in two ways: 1. Single doses through 3 days, followed by 5 days interval as total up to an amount of 12 times 0.05 mg/kg. 2. Single dose on the first day, followed by 3 days interval, up to a total amount of 12 times 0.05 mg/kg.
The route of administration was always intravenous, 1 mg active substance was dissolved in 10 ml physiological saline.

[2] = test system: leukemias and haemoblastoses; experiment: therapeutic results in leukemias and haemoblastoses (Table VII); assay type: in vivo, human
Method: In addition, eight patients were added to the group treated on the basis of this schedule. Therapeutic results obtained by F-Leurosine in leukemias and haemoblastoses are listed in Table VII. |Therapeutic Results Obtained by F-Leurosine Treatment

Yoshida ascites sarcoma = experiment: antitumor effect on Yoshida ascites sarcoma; assay type: in vivo
Excerpt: (§1) The treatment extends the life span of animals suffering from L-1210 lymphoid leukemia, s37 ascites sarcoma or Yoshida ascites sarcoma by about 150 to 250 percent.
(§2) EFFECT OF F-LEUROSINE ON ASCITIC TUMORS

NK/Ly lymphoma = experiment: antitumor effect on NK/Ly lymphoma; assay type: in vivo, mice
Excerpt: This compound provides complete recovery or a 300 percent extension of life span in 50 to 70 percent of the cases, in tests on mice inoculated with Ehrlich ascites carcinoma or NK/Ly lymphoma.
as §2

[3] = test system: granulocytes, lymphocytes, platelets; experiment: haematological parameters; assay type: in vivo
S 37 ascites sarcoma = experiment: antitumor effect on S 37 ascites sarcoma; assay type: in vivo
Excerpt: as §1, §2

lymphomas = experiment: effect of F-leurosine on lymphomas in patients (Table II); assay type: in vivo, human
Excerpt: Both of Hodgkin patients belonged to the poor risk category.
EFFECT OF F-LEUROSINE ON LYMPHOMAS

[4] = tolerability and therapeutical range in animal tests; assay type: in vivo
Method: A dose of 0.3 to 5.0 mg./kg. of body weight can also be used in human therapy, although the dosage can be as low as 0.01 mg./kg. daily.

rhabdomyo-sarcoma = experiment: growth inhibition of induced and transplanted rhabdomyo-sarcoma; assay type: in vivo
[5] = 0.05 mg/kg daily dose, applied 3-12 times

CCC12CN3CCc4c([nH]c5ccccc45)[C@@](C(=O)OC)(c4cc5c(cc4OC)N(C=O)[C@H]4[C@@](O)(C(=O)OC)[C@H](OC(C)=O)[C@]6(CC)C=CCN7CC[C@]54[C@@H]76)C[C@@H](C3)C1O2 (stereo partly shown) [N-formyl-leurosine]
side effects [1, 5]: does not produce any side effects | untoward neurological symptoms [1, 5]: No untoward symptoms of a neurological respect appear | objective improvement ([1]; 0.05 mg/kg daily i.v., complete treatments): all complete treatments were followed by objective improvement | Complete remission ([1]; 0.05 mg/kg daily i.v., leukemic patients): both leukemic patients had complete remission | effectiveness in acute leukemia and lymphomas ([1]; phase I examinations, acute leukemia (myeloblast and lymphoblast type) and lymphomas): equally effective in acute leukemia (myeloblast and lymphoblast type), and in lymphomas | cytostatic effect ([1]; summary): very effective cytostatic | Complete remission ([2]; ALL, 1 patient): 1 patients | Complete remission ([2]; AML, 1 patient): 1 patients | Partial remission ([2]; AMoL, 1 patient): 1 patients | Partial remission ([2]; AUL, 1 patient): 1 patients | Partial remission ([2]; CLL, 3 patients): 3 patients | No response ([2]; Hodgkin's disease, 2 patients): 2 patients | No response ([2]; LSC, 5 patients): 1 patients | Partial remission ([2]; LSC, 5 patients): 4 patients | No response ([2]; Multiple myelomo, 6 patients): 2 patients | Partial remission ([2]; Multiple myelomo, 6 patients): 4 patients | No response ([2]; RSC, 2 patients): 1 patients | Partial remission ([2]; RSC, 2 patients): 1 patients | Complete remission ([2]; Total, 22 patients): 2 patients | No response ([2]; Total, 22 patients): 6 patients | Partial remission ([2]; Total, 22 patients): 14 patients | Survival (Yoshida ascites sarcoma; 9 × 0.5 mg/kg i.p. daily): 143 | Tumor free (Yoshida ascites sarcoma; 9 × 0.5 mg/kg i.p. daily): 0/6 | Survival (Yoshida ascites sarcoma; 9 × 1.0 mg/kg i.p. daily): 173 | Tumor free (Yoshida ascites sarcoma; 9 × 1.0 mg/kg i.p. daily): 2/6 | Survival (Yoshida ascites sarcoma; 9 × 2.0 mg/kg i.p. daily): 243 | Tumor free (Yoshida ascites sarcoma; 9 × 2.0 mg/kg i.p. daily): 4/6 | extension of life span (Yoshida ascites sarcoma; Yoshida ascites sarcoma, about): 150-250% | extension of life span (NK/Ly lymphoma): 300% | Survival (NK/Ly lymphoma; 8 × 0.5 mg/kg i.p. daily): 250 | Tumor free (NK/Ly lymphoma; 8 × 0.5 mg/kg i.p. daily): 2/10 | lowering of number of granulocytes ([3]; 0.6 mg/kg): 50% | number of lymphocytes ([3]; 15 mg/kg): decreased only after administration of 15 mg/kg | platelet count ([3]; similar dose level): No significant changes | Tumor free (S 37 ascites sarcoma; 4 × 2.5 mg/kg i.p. daily): 4/6 | Tumor inhibition (S 37 ascites sarcoma; 4 × 2.5 mg/kg i.p. daily): 100 | Survival (S 37 ascites sarcoma; 8 × 1.0 mg/kg i.p. daily): 268 | Tumor free (S 37 ascites sarcoma; 8 × 1.0 mg/kg i.p. daily): 1/6 | extension of life span (S 37 ascites sarcoma; s37 ascites sarcoma, about): 150-250% | X-ray picture of the chest, atelectasia in lower region of right lung (lymphomas; Hodgkin patient four, before vs after treatment): undoubted improvement | response (lymphomas; lymphosarcoma patient eight, poor risk): non-responding | palpable lymph nodes (lymphomas; lymphosarcoma patient five, after second course): all but one of the palpable lymph nodes disappeared | Westergren value after treatment (lymphomas; lymphosarcoma patient five, 75 mm/hour before the treatment): 12 mm/h | remission (lymphomas; lymphosarcoma patient three): moderate remission | change in mediastinal pathologic lymph nodes' size and intensity (lymphomas; lymphosarcoma patient two): not spectacular, but definite | palpable lymph nodes (lymphomas; lymphosarcoma patient two): The majority of their palpable lymph nodes disappeared | effect (lymphomas; patient five, course I, Lysc., schedule A): IR>50% | effect (lymphomas; patient five, course II, Lysc., schedule B): IR<50% | effect (lymphomas; patient nine, Hodgkin SC., schedule C): IR<50% | effect (lymphomas; patient one, Rsc., schedule C): IR<50% | effect (lymphomas; patient three, Lysc., schedule A): IR<50% | effect (lymphomas; patient two, Lysc., schedule C): IR>50% | sensitivity to treatment (lymphomas; poor risk Hodgkin patient four): proved to be sensitive | improvement after therapy (lymphomas; two reticulosarcoma patients, some lymph nodes diminished, softer, more mobile): one showed a moderate improvement after therapy | side-effects ([4]; 0.3 to 5.0 mg./kg. for prolonged periods, animals): without causing side-effects characteristic of and unavoidable with the known vinca-alkaloids | therapeutical range compared with vincristine ([4]; animal tests): somewhat similar to that of vincristine | therapeutical range compared with vinleurosine ([4]; animal tests): about four times broader than that of vinleurosine | growth inhibition (rhabdomyo-sarcoma): remarkable growth inhibition
